Results reported in patent US10662146B2, “Prodrugs of fencamfamine” (Praxis Bioresearch, LLC, priority 2015, dated 2020).
Where “and” joins values, the source holds several entries; their conditions need not be identical. Equal values may be shown once. Read-outs that look alike come from different tables or passages of the source.

Assay: Single dose oral PK study in male Sprague Dawley rats (plasma by LC-MS/MS)
Assay type: in vivo
Details: for AUC(0-inf) / AUC(0-t) / half-life / Cmax / MRT last: po; for AUC(0-inf): read-out: AUCinf of PRX-P5-006; for AUC(0-t): read-out: AUClast of PRX-P5-006; for half-life: read-out: T1/2 of PRX-P5-006 (converted); for MRT last: read-out: MRTlast of PRX-P5-006
Method: We describe here PK results of prodrugs of PRX-002 (−) or (+) isomers. All doses of prodrugs were administered such that they were equivalent to 5 mg/kg of PRX-002 (−) or (+) for oral studies and 2 mg/kg PRX-002 (−) or (+) for intravenous studies in male Sprague-Dawley (MSD) rats. Higher doses of up to 10 or 15 mg/kg [again equivalent to PRX-002 (−)] were used in some studies (as specified)]. Formulation preparation, dose administration and time of sample collection was as follows.
Test item was weighed [5 mg equivalent dose of PRX-002 for prodrugs] and transferred to a graduated tube. Then 10 μL of Tween 80 was added and vortexed mixed until the test item was completely mixed. Small volume of 0.5% (w/v) carboxymethylcellulose in water solution was then added dropwise with continuous vortex mixing until a uniform suspension was obtained. The final volume was then made up to 10 mL with 0.5% (w/v) carboxymethylcellulose in water with final strength of 0.5 mg/mL. […] This formulation was freshly prepared before the administration to animals.
(§1) Adult male Sprague Dawley Rats aged 8-10 weeks were used for the study. Fasted animals were administered test item by oral route with a dose of 5 mg/kg body weight at dose volume of 10 mL/kg body weight. Under mild isoflurane anesthesia, blood specimens were collected by retro-orbital puncture method using capillary tubes into pre-labeled tubes containing anticoagulant (K2EDTA-2 mg/mL blood) during the next 24 hours of post dose as mentioned in below table. For blood sampling at multiple time points, right and left eyes were used alternatively for blood collection. Collected blood specimens were centrifuged at 4000 rpm, 4° C. for 10 minutes and plasma were separated and stored at −80° C. until analysis.
Blood was collected as outlined in Table 39.1 (oral).
(§2) Test item PRX-P4-003 was weighed and transferred to a graduated tube. Then 12.42 μL of Tween 80 was added and vortexed mixed until the test item was completely mixed. Small volume of 0.5% (w/v) Carboxymethylcellulose in water solution was then added dropwise with continuous vortex mixing until a uniform suspension was obtained. The final volume was then made up to 12.42 mL with 0.5% (w/v) Carboxymethylcellulose in water with final strength of 1.0 mgA/mL. […] This formulation was freshly prepared before the administration to animals.
as §1, with “with a PRX-P4-003” for “test item”, “10” for “5”
as §2, with “PRX-P5-006” for “PRX-P4-003”, “10” for “12.42”, “3.97 mg/mL.” for “1.0 mgA/mL.”
Adult male Sprague Dawley Rats aged 8-10 weeks were used for the study. Fasted animals were administered with a PRX-P5-006 by oral route with a dose of 15 mg/kg body weight at dose volume of 10 mL/kg body weight. […]

[1] = PRX-P5-006 oral 5 mg/kg b.w., individual animals, 5 mg/kg
[2] = PRX-P5-006 oral 5 mg/kg, mean, 5 mg/kg
[3] = male, Sprague Dawley, rat, in vivo, 5 mg/kg, PRX-P5-006 oral 5 mg/kg, mean
[4] = male, Sprague-Dawley, rat, in vivo, 5 mg/kg, PRX-P5-006 oral 5 mg/kg b.w., individual animals

Question: Which “AUC% extrap of PRX-P5-006” value [1] does the source give for CCCCCCCCCCCCCCCCCC(=O)OC(C)OC(=O)N(CC)C1C2CCC(C2)C1c1ccccc1 (single isomer, unassigned) [PRX-P5-006, N-(1-Octadecanoyloxyethoxycarbonyl)-(−)-N-ethyl-3-phenylbicyclo[2.2.1]heptan-2-amine] here?
Answer: The value was 62.02% and 50.02% and 31.64%.

Question: And the “AUCinf of PRX-P5-006” value [1]?
Answer: The value was 132.93 ng·h/mL and 88.37 ng·h/mL.

Question: What about the “AUClast of PRX-P5-006” value [1] of the same compound?
Answer: The value was 66.44 ng·h/mL and 60.40 ng·h/mL.

Question: And the “Cmax of PRX-P5-006” value [1]?
Answer: The value was 72.65 ng/mL and 67.85 ng/mL.

Question: What about the “MRTlast of PRX-P5-006” value [1] of the same compound?
Answer: Its value is 1.05 h.

Question: What about the “T1/2 of PRX-P5-006” value [1] of the same compound?
Answer: Its value is 3.31 h and 1.91 h.

Question: And the “AUC% extrap of PRX-P5-006” value [2]?
Answer: Its value is 47.896 ± 15.3010% and 47.896%.

Question: What about the “T1/2 of PRX-P5-006” value [2] of the same compound?
Answer: The value was 2.907 h.

Question: What about the AUC(0-inf) [3] of the same compound?
Answer: Its AUC(0-inf) is 115 ± 23.3 ng·h/mL.

Question: And the AUC(0-t) [3]?
Answer: The AUC(0-t) was 57.8 ± 10.2 ng·h/mL.

Question: What about the half-life [3] of the same compound?
Answer: Its half-life is 2.91 ± 0.865 h.

Question: And the Cmax (male, Sprague Dawley, rat, in vivo, 15 mg/kg, oral 15 mg/kg (footnote *), analyte: prodrug in plasma, mean, read-out: Oral PK Parameters Cmax, Prodrug)?
Answer: Its Cmax is 81.6 ± 42.2 ng/mL.

Question: What about the Tmax (male, Sprague Dawley, rat, in vivo, oral 5 mg/kg [equivalent to PRX-002 (−)], analyte: prodrug in plasma, mean, read-out: Oral PK Parameters Tmax, Prodrug) of the same compound?
Answer: The Tmax was 0 h.

Question: And the AUC (male, Sprague Dawley, rat, in vivo, oral 15 mg/kg (footnote *), analyte: prodrug in plasma, mean, read-out: Oral PK Parameters AUC, Prodrug)?
Answer: Its AUC is 477 ± 54.4 ng·h/mL.

Question: And the Tmax (male, Sprague Dawley, rat, in vivo, oral 15 mg/kg (footnote *), analyte: prodrug in plasma, mean, read-out: Oral PK Parameters Tmax, Prodrug)?
Answer: Its Tmax is 0.8 ± 0.3 h.

Question: And the AUC(0-inf) [4]?
Answer: Its AUC(0-inf) is 123 ng·h/mL.

Question: And the AUC(0-t) [4]?
Answer: Its AUC(0-t) is 46.6 ng·h/mL.

Question: What about the Cmax (male, Sprague-Dawley, rat, in vivo, 5 mg/kg, PRX-P5-006 oral 5 mg/kg b.w., individual animals, read-out: Cmax of PRX-P5-006) of the same compound?
Answer: The Cmax was 43.9 ng/mL.

Question: And the MRT last [4]?
Answer: Its MRT last is 1.1 h.

Question: What about the half-life [4] of the same compound?
Answer: The half-life was 3.5 h.

Question: And the Cmax (male, Sprague-Dawley, rat, in vivo, 5 mg/kg, PRX-P5-006 oral 5 mg/kg, mean, read-out: Cmax of PRX-P5-006)?
Answer: The Cmax was 61.5 ± 15.4 ng/mL.

Question: And the MRT last (male, Sprague-Dawley, rat, in vivo, 5 mg/kg, PRX-P5-006 oral 5 mg/kg, mean)?
Answer: The MRT last was 1.07 ± 0.025 h.

Question: And the Tmax (male, Sprague-Dawley, rat, in vivo, PRX-P5-006 oral 5 mg/kg, mean, read-out: Tmax of PRX-P5-006)?
Answer: The Tmax was 1 h.

Question: Which “Plasma concentration of PRX-P5-011” value (PRX-P5-011 oral (5 mg/kg equivalent), 0.00 h, individual animals) does the source give for CCCCCCCCCCCCCCCCCC(=O)OC(C)OC(=O)N(CC)C1C2CCC(C2)C1c1ccccc1 (single isomer, unassigned) [PRX-P5-011, N-(1-Octadecanoyloxyethoxycarbonyl)-(+)-N-ethyl-3-phenylbicyclo[2.2.1]heptan-2-amine] here?
Answer: The value was 0.00 ng/mL.

Question: And the “Plasma concentration of PRX-P5-011” value (PRX-P5-011 oral (5 mg/kg equivalent), 0.00 h, mean)?
Answer: The value was 0.000 ng/mL.

Question: And the “Plasma concentration of PRX-P5-011” value (PRX-P5-011 oral (5 mg/kg equivalent), 0.08 h, individual animals)?
Answer: The value was 0.00 ng/mL.

Question: And the “Plasma concentration of PRX-P5-011” value (PRX-P5-011 oral (5 mg/kg equivalent), 0.08 h, mean)?
Answer: The value was 0.000 ng/mL.

Question: What about the “Plasma concentration of PRX-P5-011” value (PRX-P5-011 oral (5 mg/kg equivalent), 0.25 h, individual animals) of the same compound?
Answer: Its value is 0.00 ng/mL.

Question: What about the “Plasma concentration of PRX-P5-011” value (PRX-P5-011 oral (5 mg/kg equivalent), 0.25 h, mean) of the same compound?
Answer: Its value is 0.000 ng/mL.

Question: And the “Plasma concentration of PRX-P5-011” value (PRX-P5-011 oral (5 mg/kg equivalent), 0.50 h, individual animals)?
Answer: Its value is 0.00 ng/mL.

Question: What about the “Plasma concentration of PRX-P5-011” value (PRX-P5-011 oral (5 mg/kg equivalent), 0.50 h, mean) of the same compound?
Answer: Its value is 0.000 ng/mL.

Question: What about the “Plasma concentration of PRX-P5-011” value (PRX-P5-011 oral (5 mg/kg equivalent), 1.00 h, individual animals) of the same compound?
Answer: Its value is 0.00 ng/mL.

Question: And the “Plasma concentration of PRX-P5-011” value (PRX-P5-011 oral (5 mg/kg equivalent), 1.00 h, mean)?
Answer: The value was 0.000 ng/mL.

Question: And the “Plasma concentration of PRX-P5-011” value (PRX-P5-011 oral (5 mg/kg equivalent), 2.00 h, individual animals)?
Answer: Its value is 0.00 ng/mL.

Question: And the “Plasma concentration of PRX-P5-011” value (PRX-P5-011 oral (5 mg/kg equivalent), 2.00 h, mean)?
Answer: Its value is 0.000 ng/mL.

Question: And the “Plasma concentration of PRX-P5-011” value (PRX-P5-011 oral (5 mg/kg equivalent), 4.00 h, individual animals)?
Answer: Its value is 0.00 ng/mL.

Question: And the “Plasma concentration of PRX-P5-011” value (PRX-P5-011 oral (5 mg/kg equivalent), 4.00 h, mean)?
Answer: The value was 0.000 ng/mL.

Question: What about the “Plasma concentration of PRX-P5-011” value (PRX-P5-011 oral (5 mg/kg equivalent), 6.00 h, individual animals) of the same compound?
Answer: Its value is 0.00 ng/mL.

Question: What about the “Plasma concentration of PRX-P5-011” value (PRX-P5-011 oral (5 mg/kg equivalent), 6.00 h, mean) of the same compound?
Answer: Its value is 0.000 ng/mL.

Question: What about the “Plasma concentration of PRX-P5-011” value (PRX-P5-011 oral (5 mg/kg equivalent), 24.00 h, individual animals) of the same compound?
Answer: The value was 0.00 ng/mL.

Question: And the “Plasma concentration of PRX-P5-011” value (PRX-P5-011 oral (5 mg/kg equivalent), 24.00 h, mean)?
Answer: Its value is 0.000 ng/mL.

Question: And the “Active compound PRX-002 (+) in plasma” value (PRX-P5-011 oral administration)?
Answer: Its value is “not detected”.

Question: And the concentration at 0 h (male, Sprague-Dawley, rat, in vivo, PRX-P5-011 oral (5 mg/kg equivalent), 0.00 h, individual animals, read-out: Plasma concentration of PRX-P5-011)?
Answer: Its concentration at 0 h is 0 ng/mL.

Question: What about the concentration at 0.08 h (male, Sprague-Dawley, rat, in vivo, PRX-P5-011 oral (5 mg/kg equivalent), 0.08 h, individual animals, read-out: Plasma concentration of PRX-P5-011) of the same compound?
Answer: Its concentration at 0.08 h is 0 ng/mL.

Question: And the concentration at 0.25 h (male, Sprague-Dawley, rat, in vivo, PRX-P5-011 oral (5 mg/kg equivalent), 0.25 h, individual animals, read-out: Plasma concentration of PRX-P5-011)?
Answer: Its concentration at 0.25 h is 0 ng/mL.

Question: What about the concentration at 0.5 h (male, Sprague-Dawley, rat, in vivo, PRX-P5-011 oral (5 mg/kg equivalent), 0.50 h, individual animals, read-out: Plasma concentration of PRX-P5-011) of the same compound?
Answer: Its concentration at 0.5 h is 0 ng/mL.

Question: What about the concentration at 1 h (male, Sprague-Dawley, rat, in vivo, PRX-P5-011 oral (5 mg/kg equivalent), 1.00 h, individual animals, read-out: Plasma concentration of PRX-P5-011) of the same compound?
Answer: The concentration at 1 h was 0 ng/mL.

Question: What about the concentration at 2 h (male, Sprague-Dawley, rat, in vivo, PRX-P5-011 oral (5 mg/kg equivalent), 2.00 h, individual animals, read-out: Plasma concentration of PRX-P5-011) of the same compound?
Answer: Its concentration at 2 h is 0 ng/mL.

Question: And the concentration at 4 h (male, Sprague-Dawley, rat, in vivo, PRX-P5-011 oral (5 mg/kg equivalent), 4.00 h, individual animals, read-out: Plasma concentration of PRX-P5-011)?
Answer: Its concentration at 4 h is 0 ng/mL.

Question: And the concentration at 6 h (male, Sprague-Dawley, rat, in vivo, PRX-P5-011 oral (5 mg/kg equivalent), 6.00 h, individual animals, read-out: Plasma concentration of PRX-P5-011)?
Answer: Its concentration at 6 h is 0 ng/mL.

Question: What about the concentration at 24 h (male, Sprague-Dawley, rat, in vivo, PRX-P5-011 oral (5 mg/kg equivalent), 24.00 h, individual animals, read-out: Plasma concentration of PRX-P5-011) of the same compound?
Answer: Its concentration at 24 h is 0 ng/mL.

Question: And the “Oral PK Parameters Tmax, Prodrug” value (oral 5 mg/kg [equivalent to PRX-002 (−)], analyte: prodrug in plasma, mean)?
Answer: The value was 0 h.
